# How the values were obtained:
# [1] = test system: Brassica oleracea cv Botrytis (temperate cauliflower) seeds; assay: Paper germination test, temperate cauliflower seeds, 10° C. in the light; format: in vivo; details: 25 μM, sets A and B separate experiments
# Method: The effect of compounds of Formula (I) on the germination of Brassica oleracea cv Botrytis or common cauliflower was tested on two types of cauliflowers: temperate types and tropical types. These two types were chosen because they display different sensitivities to the light conditions and temperature during germination. Germination of a sensitive temperate type is inhibited by light at 10° C. while for the tropical types germination at 20° is stimulated by the presence of light.
# The temperate seed batches tested are part of commercially produced seed batches of various varieties which are known to be sensitive to light at 10° C. These seeds were harvested and cleaned according standard commercial procedures. Ready seed batches were used (Ready indicates the processing level of these seeds: they have been cleaned and sized but received no other treatments). The tropical seed batches tested are part of seed batches produced as basic seed (for maintenance of the parental line) and were processed accordingly.
# Germination was assessed using the standard paper germination test for Brassica: Fifty seeds were placed on blue germination paper, which was moistened with the appropriate solutions, in closed oblong germination boxes. Each condition was tested in duplo. Germination boxes were placed in controlled germination cabinets with the appropriate temperature and light conditions. Germination of seeds was counted at regular intervals. Seeds were considered to be germinated when the radical had protruded the testa and endosperm (radical size approximately 1 mm)
# Test compounds were dissolved in DMSO at a concentration of 50 mM and stored at −20° C. The strigolactone analogue GR24 (commercially available as a racemic mixture of 2 diastereoisomers, referred to as “synthetic strigolactone GR-24” and first prepared by Johnson A. W. & all, Journal of the Chemical Society, Perkin Transactions 1, 1981, page 1734-1743) was included as positive control. Germination solutions were prepared by diluting the stock solutions with demineralized water till 25 μM. As control solutions demineralized water and a 0.05% v/v DMSO solution were used.
# [2] = test system: Orobanche cumana Wallr. seeds; assay: Germination of preconditioned Orobanche cumana seeds on glass fiber filter paper in petri dishes; format: in vivo; details: mean, N = 5 × 100 seeds, seed lot IN153
# Method: The effect of compounds of Formula (I) on germination of Orobanche cumana Wallr. seeds was evaluated on glass fiber filter paper (GFFP) in petri dishes. Seeds were preconditioned at moisture and suitable temperature to become responsive to the specific chemical germination stimulants.
# Test compounds were dissolved in DMSO (10 000 mg l^−1) and stored at room temperature in a desiccators with desiccants. The stock solutions were dissolved with deionised water to the appropriate final test concentration.
# Seeds of O. cumana race ‘F’ (IN153) were collected from a sunflower field in Manzanilla (Seville, Spain) in 2006 and stored at room temperature. To separate seeds from heavy organic debris, a modified sucrose floatation technique as described by Hartman & Tanimonure (Plant Disease (1991), 75, p. 494) was applied. Seeds were filled into a separation funnel and stirred in water. When seeds floated to the surface, the water fraction containing heavy debris was discarded. Seeds were re-suspended in 2.5M sucrose solution (specific gravity of 1.20) and heavy debris was allowed to settle down for 60 min After removing debris, seeds were disinfected in 1% sodium hypochlorite solution and 0.025% (v/v) Tween 20 for 2 min. The seeds were decanted onto two layers of cheesecloth, rinsed with sterile deionised water and re-suspended in sterile deionised water. Two ml of the seed suspension containing approximately 150-400 seeds were spread evenly on two layers of sterile glass fiber filter paper disc ([…]) in Petri dishes (Ø9 cm). After wetting the discs with 3 ml sterile deionised water, petri dishes were sealed with parafilm. Seeds were incubated for 10 days at 20° C. in the dark for seed conditioning. The upper disc with conditioned seeds was briefly dried, transferred to a petri dish lined with a dry GFFP disc, and wetted with 6 ml of the appropriate test solution. The compounds of Formula (I) were tested at concentrations of 0.001, 0.01, 0.1, or 1 mg l^−. The strigolactone analogue GR24 was included as positive control and 0.01% DMSO as negative control. All treatments were tested in five replicates. Seeds were re-incubated at 20° C. in the dark and examined for germination 10 days later. The radicles of germinated seeds were stained for 5 min with blue ink (MIGROS, Switzerland) in 5% acetic acid according to Long et al. (Seed Science Research (2008), 18, p. 125). After staining, seeds were photographed using a camera stand mounted with a digital SLR camera (Canon EOS 5D). Germination of 100 seeds per replicate was evaluated on digital images. Seeds were considered germinated when the radicle protruded from the seed coat.
# [3] = temperate cauliflower Spacestar seed batch 11B313 (cold-sensitive)
# [4] = temperate cauliflower Spacestar seed batch 11B314 (not cold sensitive)
# [5] = Table B2, concentration 0.01 mg 1^−1, DMSO control 2.4% germination
# [6] = Table B2, concentration 0.1 mg 1^−1, DMSO control 2.4% germination
# [7] = Table B2, concentration 1 mg 1^−1, DMSO control 2.4% germination
# [8] = Table B1, concentration 0.001 mg 1^−1, DMSO control 0.4% germination
# [9] = Table B1, concentration 0.1 mg 1^−1, DMSO control 0.4% germination
# [10] = Table B1, concentration 1 mg 1^−1, DMSO control 0.4% germination
# [11] = Table B3, concentration 0.001 mg 1^−1, DMSO control 0% germination
# [12] = Table B3, concentration 0.01 mg 1^−1, DMSO control 0% germination
# [13] = Table B3, concentration 0.1 mg 1^−1, DMSO control 0% germination
smiles,measurement,setting,value
"CC1=CC(O/C=C2\CCNC2=O)OC1=O (centres unmarked) [Ia-8, (3E)-3-[(4-methyl-5-oxo-2H-furan-2-yl)oxymethylene]pyrrolidin-2-one]","Gmax (%), total germination as percentage of sown seeds",[1]; [3],77.0%
same,"stimulation (%), extra germination compared to the DMSO treatment, as percentage of the germination in the DMSO treatment",[1]; [3],42.6%
same,"Gmax (%), total germination as percentage of sown seeds",[1]; [4],93.0%
same,"stimulation (%), extra germination compared to the DMSO treatment, as percentage of the germination in the DMSO treatment",[1]; [4],8.1%
"CC1=CC(O/C=C2/C(=O)NC3CCCC23)OC1=O (centres unmarked) [Ia-2, (3E)-3-[(4-methyl-5-oxo-2H-furan-2-yl)oxymethylene]-1,3a,4,5,6,6a-hexahydrocyclopenta[b]pyrrol-2-one]",Germination (%),[2]; [5],75.4%
same,Germination (%),[2]; [6],65.4%
same,Germination (%),[2]; [7],83.4%
"CC1=CC(O/C=C2/C(=O)N(C(=O)OC(C)(C)C)C3CCCC23)OC1=O (centres unmarked) [Ib-2, tert-butyl (3E)-3-[(4-methyl-5-oxo-2H-furan-2-yl)oxymethylene]-2-oxo-4,5,6,6a-tetrahydro-3aH-cyclopenta[b]pyrrole-1-carboxylate]",Germination (%),[2]; [8],0%
same,Germination (%),[2]; [9],18.2%
same,Germination (%),[2]; [10],54.8%
"CC1=CC(O/C=C2\CCCCNC2=O)OC1=O (centres unmarked) [Ia-13, (3E)-3-[(4-methyl-5-oxo-2H-furan-2-yl)oxymethylene]azepan-2-one]","Gmax (%), total germination as percentage of sown seeds",[1]; [3],42.3%
same,"stimulation (%), extra germination compared to the DMSO treatment, as percentage of the germination in the DMSO treatment",[1]; [3],−21.8%
same,"Gmax (%), total germination as percentage of sown seeds",[1]; [4],92.5%
same,"stimulation (%), extra germination compared to the DMSO treatment, as percentage of the germination in the DMSO treatment",[1]; [4],7.6%
same,Germination (%),"[2]; Table B5, concentration 0.01 mg 1^−1 (second column), DMSO control 1.4% germination",34.2%
same,Germination (%),"[2]; Table B5, concentration 0.01 mg 1^−1 (third column), DMSO control 1.4% germination",25.6%
same,Germination (%),"[2]; Table B5, concentration 1 mg 1^−1, DMSO control 1.4% germination",70%
"CC1=CC(O/C=C2\CC(c3ccccc3)N(C(=O)OC(C)(C)C)C2=O)OC1=O (centres unmarked) [Ib-10, tert-butyl (3E)-3-[(4-methyl-5-oxo-2H-furan-2-yl)oxymethylene]-2-oxo-5-phenyl-pyrrolidine-1-carboxylate]",Germination (%),[2]; [11],72.8%
same,Germination (%),[2]; [12],72.4%
same,Germination (%),[2]; [13],71.8%
"CC1=CC(O/C=C2\CCCN(c3ccccc3)C2=O)OC1=O (centres unmarked) [I-5, (3E)-3-[(4-methyl-5-oxo-2H-furan-2-yl)oxymethylene]-1-phenyl-piperidin-2-one]",Germination (%),[2]; [5],1%
same,Germination (%),[2]; [6],0%
same,Germination (%),[2]; [7],42.2%
"CC1=CC(O/C=C2/C(=O)N(C(=O)OC(C)(C)C)C3C=CCC23)OC1=O (centres unmarked) [Ib-1, tert-butyl (3E)-3-[(4-methyl-5-oxo-2H-furan-2-yl)oxymethylene]-2-oxo-4,6a-dihydro-3aH-cyclopenta[b]pyrrole-1-carboxylate]",Germination (%),[2]; [8],0%
same,Germination (%),[2]; [9],25.8%
same,Germination (%),[2]; [10],92.6%
"CC1=CC(O/C=C2\CC(C)N(c3ccccc3)C2=O)OC1=O (centres unmarked) [I-4, (3E)-5-methyl-3-[(4-methyl-5-oxo-2H-furan-2-yl)oxymethylene]-1-phenyl-pyrrolidin-2-one]",Germination (%),[2]; [5],0.6%
same,Germination (%),[2]; [6],1%
same,Germination (%),[2]; [7],18.2%
"CC1=CC(O/C=C2\CCCCN(C(=O)OC(C)(C)C)C2=O)OC1=O (centres unmarked) [Ib-13, tert-butyl (3E)-3-[(4-methyl-5-oxo-2H-furan-2-yl)oxymethylene]-2-oxo-azepane-1-carboxylate]",Germination (%),"[2]; Concentration 0.01 mg l^-1, 10 days at 20° C. in the dark",48%
same,Germination (%),"[2]; Concentration 0.01 mg l^-1 as printed, 10 days at 20° C. in the dark",83%
same,Germination (%),"[2]; Concentration 1 mg l^-1, 10 days at 20° C. in the dark",90.8%
"CC1=C[C@H](O/C=C2/C(=O)N[C@@H]3C=CC[C@H]23)OC1=O [Ia-1′, (3E,3aR,6aR)-3-[[(2R)-4-methyl-5-oxo-2H-furan-2-yl]oxymethylene]-1,3a,4,6a-tetrahydrocyclopenta[b]pyrrol-2-one]",Germination (%),"[2]; Table B6, concentration 0.001 mg 1^−1, DMSO control 2.4% germination",68.0%
same,Germination (%),"[2]; Table B6, concentration 0.1 mg 1^−1, DMSO control 2.4% germination",55.3%
same,Germination (%),"[2]; Table B6, concentration 1 mg 1^−1, DMSO control 2.4% germination",54.8%
"CC1=CC(O/C=C2\CCN(C(=O)OC(C)(C)C)C2=O)OC1=O (centres unmarked) [Ib-8, tert-butyl (3E)-3-[(4-methyl-5-oxo-2H-furan-2-yl)oxymethylene]-2-oxo-pyrrolidine-1-carboxylate]",Germination (%),[2]; [5],0.2%
same,Germination (%),[2]; [6],2.8%
same,Germination (%),[2]; [7],1.4%
"CC1=CC(O/C=C2\CC(C)N(C(=O)OC(C)(C)C)C2=O)OC1=O (centres unmarked) [Ib-6, tert-butyl (3E)-5-methyl-3-[(4-methyl-5-oxo-2H-furan-2-yl)oxymethylene]-2-oxo-pyrrolidine-1-carboxylate]",Germination (%),[2]; [8],0.4%
same,Germination (%),[2]; [9],1.8%
same,Germination (%),[2]; [10],5.6%
"CC1=CC(O/C=C2\CC(=O)N(C)C2=O)OC1=O (centres unmarked) [I-7, (3E)-1-methyl-3-[(4-methyl-5-oxo-2H-furan-2-yl)oxymethylene]pyrrolidine-2,5-dione]",Germination (%),[2]; [5],1%
same,Germination (%),[2]; [6],1.4%
same,Germination (%),[2]; [7],17.2%
"CC1=CC(O/C=C2\CCC(c3ccccc3)N(C(=O)OC(C)(C)C)C2=O)OC1=O (centres unmarked) [Ib-12, tert-butyl (3E)-3-[(4-methyl-5-oxo-2H-furan-2-yl)oxymethylene]-2-oxo-6-phenyl-piperidine-1-carboxylate]",Germination (%),[2]; [11],91%
same,Germination (%),[2]; [12],89%
same,Germination (%),[2]; [13],90.2%
"CC1=CC(O/C=C2\CCC(c3ccccc3)NC2=O)OC1=O (centres unmarked) [Ia-12, (3E)-3-[(4-methyl-5-oxo-2H-furan-2-yl)oxymethylene]-6-phenyl-piperidin-2-one]",Germination (%),[2]; [11],93.3%
same,Germination (%),[2]; [12],86.8%
same,Germination (%),[2]; [13],92.4%
"CC1=CC(O/C=C2\CCN(c3ccccc3)C2=O)OC1=O (centres unmarked) [I-3, (3E)-3-[(4-methyl-5-oxo-2H-furan-2-yl)oxymethylene]-1-phenyl-pyrrolidin-2-one]",Germination (%),[2]; [5],0%
same,Germination (%),[2]; [6],1.6%
same,Germination (%),[2]; [7],19.2%

# From patent publication US9119398B2, “Plant growth regulating compounds” (Syngenta Participations AG, priority 2012, dated 2015)
